Source: US8841296B2, “Substituted 1, 4-dioxa-8-azaspiro[4,5]decanes useful as fungicides and a process for the preparation thereof” (Council of Scientific and Industrial Research, Anusandhan …, priority 2009, dated 2014)

Assays:
Colletotrichum capsici = test: Growth inhibition plate assay, C. capsici; format: cell-based; conditions: ND = Not Detectable; for inhibition at 25 ppm: Colletotrichum truncatum, read-out: Plate assay inhibition, P2 C. capsici
Drechslera oryzae = test: Growth inhibition plate assay, D. oryzae; format: cell-based; conditions: ND = Not Detectable; for inhibition at 25 ppm: Bipolaris oryzae, read-out: Plate assay inhibition, P3 D. oryzae, 25 ppm
grape powdery mildew = test: Field experiment against grape powdery mildew; format: in vivo, grapevine; conditions: for PDI on Bunches 11 DAIIS / % Disease Control (11 DAIIS): 11 days after 2nd spray; for % Disease Control (11 DAIIS) / % Disease Control (15 DAIIS): over untreated check; for PDI on Bunches 15 DAIIS / % Disease Control (15 DAIIS): 15 days after 2nd spray
Experimental: A field experiment was conducted on pruned grapevine, in a randomized block design with ten treatments (Table No 1) and three replications. Two sprays were given at an interval of 10 days. The plot size was eight vines per treatment/replication. The spraying was done by Knapsack sprayer using 850 L spray volume/hectare. […] Based on the observations percent incidence was worked out.

[1] = system: plant pathogenic fungi (all the test pathogens); format: cell-based; conditions: for fungicidal activity against plant pathogenic fungi: result in words
Fusarium oxysporum = test: Growth inhibition plate assay, F. oxysporum; format: cell-based; conditions: ND = Not Detectable; for inhibition at 25 ppm: Fusarium oxysporum, read-out: Plate assay inhibition, P4 F. oxysporum
grape downy mildew = test: Field experiment against grape downy mildew; format: in vivo, grapevine; conditions: for Grape Downy mildew incidence 7 DAIIS / % Control (7 DAIIS): 7 days after 2nd spray; for % Control (7 DAIIS) / % Control (10 DAIIS): over untreated check; for Grape Downy mildew incidence 10 DAIIS / % Control (10 DAIIS): 10 days after 2nd spray
Experimental: A field experiment was conducted on pruned grapevine, in a randomized block design with ten treatments (Table No. 3) and three replications. Two sprays were given at an interval of 6 days starting at 28 days after pruning. The plot size was ten vines per treatment/replication. The spraying was done by Knapsack sprayer using 1000 L spray volume/hectare. […] Based on the observations, percent disease incidence was worked out. The data was subjected to statistical analysis.

rose powdery mildew = test: Field experiment against rose powdery mildew; format: in vivo; conditions: 4 days after spray; for Rose PM % Control: over untreated check
Text: Two sprays were given at an interval of 4 days. The spraying was done by Foot operated sprayer using 1200 L spray volume/hectare. […] Based on the observations percent incidence was worked out. The data was subjected to statistical analysis.

Pythium aphanidermatum = test: Growth inhibition plate assay, P. aphanidermatum; format: cell-based; conditions: ND = Not Detectable, read-out: Plate assay inhibition, P6 P. aphanidermatum
Pyrricularia oryzae = test: microbe, parasite or virus in culture; format: cell-based; conditions: ND = Not Detectable; for inhibition at 25 ppm: Pyricularia oryzae, read-out: Plate assay inhibition, P5 P. oryzae, 25 ppm
Rhizoctonia solani = test: Growth inhibition plate assay, R. solani; format: cell-based; conditions: ND = Not Detectable, read-out: Plate assay inhibition, P1 R. solani
Magnaporthe grisea = format: cell-based
[2] = 20% EC @ 800 g a.i./ha, listed as Cpd 2

Compound	inhibition at 25 ppm (Colletotrichum capsici) [%]	inhibition at 25 ppm (Drechslera oryzae) [%]	PDI on Bunches 11 DAIIS (grape powdery mildew; 20% EC @ 340 g a.i./ha) [%]	% Disease Control (11 DAIIS) (grape powdery mildew; 20% EC @ 340 g a.i./ha) [%]	PDI on Bunches 15 DAIIS (grape powdery mildew; 20% EC @ 340 g a.i./ha) [%]	% Disease Control (15 DAIIS) (grape powdery mildew; 20% EC @ 340 g a.i./ha) [%]	% Disease Control (11 DAIIS) (grape powdery mildew; 20% EC @ 510 g a.i./ha) [%]	PDI on Bunches 15 DAIIS (grape powdery mildew; 20% EC @ 510 g a.i./ha) [%]	% Disease Control (15 DAIIS) (grape powdery mildew; 20% EC @ 510 g a.i./ha) [%]	% Disease Control (11 DAIIS) (grape powdery mildew; 20% EC @ 680 g a.i./ha) [%]	% Disease Control (15 DAIIS) (grape powdery mildew; 20% EC @ 680 g a.i./ha) [%]	fungicidal activity against plant pathogenic fungi [1]	inhibition at 25 ppm (Fusarium oxysporum) [%]	Grape Downy mildew incidence 7 DAIIS (grape downy mildew; 20% EC @ 400 g a.i./ha)	% Control (7 DAIIS) (grape downy mildew; 20% EC @ 400 g a.i./ha) [%]	Grape Downy mildew incidence 10 DAIIS (grape downy mildew; 20% EC @ 400 g a.i./ha) [%]	% Control (10 DAIIS) (grape downy mildew; 20% EC @ 400 g a.i./ha) [%]	Grape Downy mildew incidence 7 DAIIS (grape downy mildew; 20% EC @ 800 g a.i./ha)	% Control (7 DAIIS) (grape downy mildew; 20% EC @ 800 g a.i./ha) [%]	inhibition at 25 ppm (Rhizoctonia solani) [%]	also measured
c1ccc(CCN2CCC3(CC2)OCC(CSc2ccccc2)O3)cc1 (centres unmarked) [Compound 6, 8-phenethyl-2-phenylsulphanylmethyl-1,4-dioxa-8-azaspiro[4,5]decane]	60 to 90	60 to 90	11.89	60.24	10.6	59.43	66.26	9.1	65.17	69.6	70.72	active against all pathogens	60 to 90	16.14%	4.21	24.88	0	16.91%	0	90 to 100	Plate assay inhibition, P2 C. capsici (Colletotrichum capsici; 25 ppm, listed as C6): 60-70%; Plate assay inhibition, P3 D. oryzae (Drechslera oryzae; 25 ppm, listed as C6): 70-80%; Plate assay inhibition, P4 F. oxysporum (Fusarium oxysporum; 25 ppm, listed as C6): 70-80%; Grape Downy mildew incidence 10 DAIIS (grape downy mildew; 20% EC @ 800 g a.i./ha): 17.7%; % Control (10 DAIIS) (grape downy mildew; 20% EC @ 800 g a.i./ha): 22.3%; Rose PM % incidence 4 DAS (rose powdery mildew; 20% EC @ 240 g a.i./ha): 38.42%; Rose PM % Control (rose powdery mildew; 20% EC @ 240 g a.i./ha): 25.44%; Rose PM % incidence 4 DAS (rose powdery mildew; 20% EC @ 480 g a.i./ha): 29.45%; Rose PM % Control (rose powdery mildew; 20% EC @ 480 g a.i./ha): 42.84%; Rose PM % incidence 4 DAS (rose powdery mildew; 20% EC @ 720 g a.i./ha): 23.21%; Rose PM % Control (rose powdery mildew; 20% EC @ 720 g a.i./ha): 54.95%; inhibition at 25 ppm (Pythium aphanidermatum): 50 to 60%; Plate assay inhibition, P5 P. oryzae (Pyrricularia oryzae; 25 ppm, listed as C6): 80-90%; inhibition at 25 ppm (Pyrricularia oryzae): 60 to 90%
Clc1cc(Br)ccc1OCC1COC2(CCN(CCc3ccccc3)CC2)O1 (centres unmarked) [Compound 2, 2-(4-bromo-2-chlorophenoxy)methyl-8-phenethyl-1,4-dioxa-8-azaspiro[4,5]decane]	90 to 100	90 to 100	12.96	56.67	10.23	60.84	54.53	9.6	63.26	58.27	65.93	active against all pathogens	90 to 100	comparable with standard check fungicides	73.53	7.58	66.72	comparable with standard check fungicides	83.56	90 to 100	PDI on Bunches 11 DAIIS (grape powdery mildew; 20% EC @ 510 g a.i./ha): 13.6%; PDI on Bunches 11 DAIIS (grape powdery mildew; 20% EC @ 680 g a.i./ha): 12.48%; PDI on Bunches 15 DAIIS (grape powdery mildew; 20% EC @ 680 g a.i./ha): 8.9%; inhibition against all the test pathogens [1]: 90-100%; Grape Downy mildew incidence 7 DAIIS (grape downy mildew; 20% EC @ 400 g a.i./ha, listed as Cpd 2): 4.46%; Grape Downy mildew incidence 7 DAIIS (grape downy mildew; [2]): 2.77%; Grape Downy mildew incidence 10 DAIIS (grape downy mildew; 20% EC @ 800 g a.i./ha): at par with standard check fungicides; Grape Downy mildew incidence 10 DAIIS (grape downy mildew; [2]): 5.27%; % Control (10 DAIIS) (grape downy mildew; 20% EC @ 800 g a.i./ha): 76.86%; Rose PM % incidence 4 DAS (rose powdery mildew; 20% EC @ 720 g a.i./ha): 36.83%; Rose PM % Control (rose powdery mildew; 20% EC @ 720 g a.i./ha): 28.52%; inhibition at 25 ppm (Pythium aphanidermatum): 90 to 100%; inhibition at 25 ppm (Pyrricularia oryzae): 90 to 100%
c1ccc(CCN2CCC3(CC2)OCC(COCc2ccccc2)O3)cc1 (centres unmarked) [Compound 5, 2-benzyloxymethyl-8-phenethyl-1,4-dioxa-8-azaspiro[4,5]decane]	–	60 to 70	–	–	–	–	–	–	–	–	–	–	40 to 50	–	–	–	–	–	–	40 to 50	inhibition against M. grisea (Magnaporthe grisea): 60-70%
